Experimental data reported in US20250179057A1, “MEK IMMUNE ONCOLOGY INHIBITORS AND THERAPEUTIC USES THEREOF” (Immuneering Corporation, priority 2022, published 2025).

What was measured:
[1] = tested on: phospho-ERK in SK-MEL-2 cells; experiment: pERK/tERK ratio in SK-MEL-2 melanoma model; type: cell-based; conditions: SK-MEL-2 (NRAS p.Q61R); 100 nM
Experimental: (§1) Compound (drug) treatment: Cells were plated in a 6-well plate at a density of 250,000-300,000 cells/well in 3 mL media and incubated 37° C. in a humidified, 5% CO2 incubator. […] These solutions were added to the cells (3 uL/well), mixed by swirling the plate, and incubated at 37° C. in a humidified, 5% CO2 incubator for 2 hours.
(§2) Cell lysis and protein estimation: Cells were washed with PBS, and scraped in 50 μL of lysis buffer containing protease and phosphatase inhibitors. Cell lysates were stored at −20° C. Cell lysates were thawed and spun at 12,000 rpm for one minute, 3 ul of the supernatant was added to 500 μL of Coomassie blue reagent following by 500 μL of water. […] Protein standards were used (0-20 mg/mL) to calculate protein concentrations of test samples.
(§3) All samples were heated at 95° C. for 5 minutes, cooled to room temperature and spun down. […] After the run, gel was removed and protein transfer was done using iBlot for 7 minutes, as per manufacturer's recommendations. After the transfer, nitrocellulose membrane was incubated on a shaker in 5 mL of blocking buffer at room temperature for 1 hr. The blot was then incubated overnight on a shaker in 5 ml of blocking buffer containing 0.2% Tween-20 and primary antibody, at room temperature. Anti-phospho-STAT3 antibody was used at a dilution of 1:500, the other 3 primary antibodies were used at a dilution of 1:1000.
(§4) Next day, the blot was washed 3 times for 10 min each with 10 mL of TBST followed by incubation on a shaker in 5 ml of blocking buffer containing 0.2% Tween-20 and 0.5 ul of the IRDye labeled secondary antibodies, diluted 1:10000, at room temperature for 1 hr. The blot was then washed 3 times for 10 min each with 10 mL of TBST and dried between sheets of paper towels. Imaging was done using LICOR's Odyssey imaging system, quantitation was done using their software, Image Studio version 3.1.
(§5) The nine models are described in Table 16.

[2] = tested on: phospho-MEK in MM415 cells; experiment: pMEK/tMEK ratio in MM415 melanoma model; type: cell-based; conditions: MM415 (NRAS p.Q61L); 100 nM
Experimental: as §1, §2, §3, §4, §5

[3] = tested on: phospho-MEK in MEL-JUSO cells; experiment: pMEK/tMEK ratio in MEL-JUSO melanoma model; type: cell-based; conditions: MEL-JUSO (HRAS p.G13D, NRAS p.Q61L); 100 nM
Experimental: as §1, §2, §3, §4, §5

[4] = tested on: phospho-MEK in MeWo cells; experiment: pMEK/tMEK ratio in MeWo melanoma model; type: cell-based; conditions: MeWo (NF1 LoF); 100 nM
Experimental: as §1, §2, §3, §4, §5

[5] = tested on: phospho-ERK in MeWo cells; experiment: pERK/tERK ratio in MeWo melanoma model; type: cell-based; conditions: MeWo (NF1 LoF); 100 nM
Experimental: as §1, §2, §3, §4, §5

[6] = tested on: phospho-MEK in Hs852.T cells; experiment: pMEK/tMEK ratio in Hs852.T melanoma model; type: cell-based; conditions: Hs852.T (NRAS p.G12V); 100 nM
Experimental: as §1, §2, §3, §4, §5

[7] = PubChem Compound Summary; cited from earlier work
[8] = tested on: phospho-ERK in MM127 cells; experiment: pERK/tERK ratio in MM127 melanoma model; type: cell-based; conditions: MM127 (NRAS p.G13R, BRAF p.G464E); 100 nM
Experimental: as §1, §2, §3, §4, §5

[9] = tested on: phospho-MEK in A375 cells; experiment: pMEK/tMEK ratio in A375 melanoma model; type: cell-based; conditions: A375 (BRAF p.V600E); 100 nM
Experimental: as §1, §2, §3, §4, §5

[10] = tested on: phospho-ERK in SK-MEL-30 cells; experiment: pERK/tERK ratio in SK-MEL-30 melanoma model; type: cell-based; conditions: SK-MEL-30 (NRAS p.Q61K); 100 nM
Experimental: as §1, §2, §3, §4, §5

[11] = tested on: phospho-MEK in SK-MEL-28 cells; experiment: pMEK/tMEK ratio in SK-MEL-28 melanoma model; type: cell-based; conditions: SK-MEL-28 (BRAF p.V600E); 100 nM
Experimental: as §1, §2, §3, §4, §5

[12] = tested on: phospho-MEK in SK-MEL-2 cells; experiment: pMEK/tMEK ratio in SK-MEL-2 melanoma model; type: cell-based; conditions: SK-MEL-2 (NRAS p.Q61R); 100 nM
Experimental: as §1, §2, §3, §4, §5

[13] = tested on: phospho-ERK in MM415 cells; experiment: pERK/tERK ratio in MM415 melanoma model; type: cell-based; conditions: MM415 (NRAS p.Q61L); 100 nM
Experimental: as §1, §2, §3, §4, §5

[14] = tested on: phospho-ERK in SK-MEL-28 cells; experiment: pERK/tERK ratio in SK-MEL-28 melanoma model; type: cell-based; conditions: SK-MEL-28 (BRAF p.V600E); 100 nM
Experimental: as §1, §2, §3, §4, §5

[15] = tested on: phospho-ERK in MEL-JUSO cells; experiment: pERK/tERK ratio in MEL-JUSO melanoma model; type: cell-based; conditions: MEL-JUSO (HRAS p.G13D, NRAS p.Q61L); 100 nM
Experimental: as §1, §2, §3, §4, §5

[16] = tested on: phospho-ERK in Hs852.T cells; experiment: pERK/tERK ratio in Hs852.T melanoma model; type: cell-based; conditions: Hs852.T (NRAS p.G12V); 100 nM
Experimental: as §1, §2, §3, §4, §5

[17] = tested on: phospho-MEK in MM127 cells; experiment: pMEK/tMEK ratio in MM127 melanoma model; type: cell-based; conditions: MM127 (NRAS p.G13R, BRAF p.G464E); 100 nM
Experimental: as §1, §2, §3, §4, §5

[18] = tested on: phospho-ERK in A375 cells; experiment: Cell-based pERK (pERK:tERK) in A375 cells; conditions: A375 (BRAF p.V600E); 100 nM
Experimental: Materials and Methods: A549 or A375 cells were seeded in 6-well plates at an appropriate seeding density on day 0. On day 2 or 3, after checking the health and confluency of cells, the media was aspirated and replaced with 1 mL media containing a predetermined concentration of compound and incubated for 2 hours. After 2 hours, the media was aspirated, and the cells washed 2 times with cold PBS. Cells were lysed on ice, with 50 uL 1×CST lysis buffer +1 mM PMSF for 5 minutes. After 5 minutes, cells were removed using a scraper and transferred to cold 1.5 mL tubes, and centrifuged for 10 min, 4° C., 14,000×g. Supernatant was gently removed and snap frozen in liquid nitrogen. Protein concentration of the lysate was determined using Bradford Reagent (analyzed using SpectraMax M2E) and diluted to 1 mg/mL or pERK or 1.5 mg/mL for pMEK analysis. […] All dilutions were in Milk-free antibody diluent.
A549 or […] cells were treated in duplicate for two hours with compounds at varying concentrations. After two hours, the cells were lysed, snap frozen, and stored at −80° C. After storage, the lysate was quantified with the Bradford assay. Before the lysates were prepared to run on the Jess, the lysates were diluted to 1 mg/mL for pERK analysis and 1.5 mg/mL pMEK analysis using quantitative Western blotting. ERK and MEK phosphorylation levels were estimated by taking the ratio of phospho-protein to total protein and normalizing to the DMSO control.
as §5

[19] = tested on: phospho-MEK in SK-MEL-30 cells; experiment: pMEK/tMEK ratio in SK-MEL-30 melanoma model; type: cell-based; conditions: SK-MEL-30 (NRAS p.Q61K); 100 nM
Experimental: as §1, §2, §3, §4, §5

Compound: Cn1cnc2c(F)c(Nc3ccc(Br)cc3F)c(C(=O)NOCCO)cc21 [Binimetinib]
- pERK/tERK ratio normalized to DMSO [1]: 0.125
- pMEK/tMEK ratio normalized to DMSO [2]: 3.055
- pMEK/tMEK ratio normalized to DMSO [3]: 3.291
- pMEK/tMEK ratio normalized to DMSO [4]: 7.42
- pERK/tERK ratio normalized to DMSO [5]: 0.161
- pMEK/tMEK ratio normalized to DMSO [6]: 6.489
- human plasma drug half-life [7]: 3.5 h
- pERK/tERK ratio normalized to DMSO [8]: 0.199
- pMEK/tMEK ratio normalized to DMSO [9]: 1.062
- pERK/tERK ratio normalized to DMSO [10]: 0.082
- pMEK/tMEK ratio normalized to DMSO [11]: 1.055
- pMEK/tMEK ratio normalized to DMSO [12]: 2.587
- pERK/tERK ratio normalized to DMSO [13]: 0.056
- pERK/tERK ratio normalized to DMSO [14]: 0.079
- pERK/tERK ratio normalized to DMSO [15]: 0.139
- pERK/tERK ratio normalized to DMSO [16]: 0.203
- pMEK/tMEK ratio normalized to DMSO [17]: 3.009
- pERK/tERK ratio normalized to DMSO [18]: 0.136
- pMEK/tMEK ratio normalized to DMSO [19]: 2.649
